Assays:
MCF-7 = test: Cancer cell growth inhibition, MCF-7; format: cell-based, human; details: Homo sapiens, MCF7; MCF-7, Breast Cancer, 72 h treatment
Experimental: (§1) Cell culture-based assays were used to evaluate the ability of compounds of the invention to inhibit cancer cell growth inhibition.
(§2) Cells were obtained from the American Type Culture Collection (ATCC). Cells were cultured at 37° C. with 5% CO2 in the appropriate growth medium (see table below), and harvested respectively during the logarithmic growth period and counted with hemocytometer. The cell viability was over 98% by trypan blue exclusion. Cell concentrations were adjusted between 5×10^4 and 2×10^5 cells/ml with respective medium.
(§3) Stock solutions of test compounds and positive drugs Doxorubicin (Zhejiang, Haizheng, China), Paclitaxel (Beijing, Xiehe, China), Vincristin (Shenzhen Wanle, China), 5-FU (Tianjin jinyaoanjisuan, China), Irinotecan (Jiangsu Hengrui, China) and Cisplatin Nanjing zhiyao, China) were prepared in dimethyl sulphoxide (DMSO) or PBS at 20 mM.
(§4) All treatments were performed in triplicate. 10 μl drug solution was added to each well and incubated for 72 hours. At the end of the incubation, 20 μl of the freshly prepared MTS/PMS mixture solution was added to each well and incubated for 4 hours at 37° C. in a humidified, 5% CO2 atmosphere. Absorbance was read at 490 nm using SpectraMAX Plus microplate spectrophotometer. […] In order to calculate IC50, a dose-responsive curve was fitted using nonlinear regression model with a sigmoidal dose response.

HT-29 = test: Cancer cell growth inhibition, HT-29; format: cell-based, human; details: Homo sapiens; HT-29, Colorectal Cancer, 72 h treatment
Experimental: as §1, §2, §3, §4

HT-1080 = test: Cancer cell growth inhibition, HT-1080; format: cell-based; details: Homo sapiens; HT-1080, Fibrosarcoma, 72 h treatment
Experimental: as §1, §2, §3, §4

MCG803 = test: Cancer cell growth inhibition, MCG803; format: cell-based, human; details: Homo sapiens; MCG803, Gastric Cancer, 72 h treatment
Experimental: as §1, §2, §3, §4

DU145 = test: Cancer cell growth inhibition, DU145; format: cell-based, human; details: Homo sapiens, DU-145; DU145, Prostate Cancer, 72 h treatment
Experimental: as §1, §2, §3, §4

OVCAR3 = test: Cancer cell growth inhibition, OVCAR3; format: cell-based, human; details: Homo sapiens, OVCAR-3; OVCAR3, Ovarian Cancer, 72 h treatment
Experimental: as §1, §2, §3, §4

[1] = tested on: Nuclear Extract from HeLa Cells; test: HeLa Nuclear Extract HDAC assay; format: biochemical, human; details: 50 μM substrate, 30° C., 2 h, read-out: IC50 (nM) of enzyme activity HeLa
LoVo = test: Cancer cell growth inhibition, LoVo; format: cell-based, human; details: Homo sapiens, Colorectal Cancer, 72 h treatment
Experimental: as §1, §2, §3, §4

786-O = test: Cancer cell growth inhibition, 786-O; format: cell-based, human; details: Homo sapiens, 786-0, Kindney Cancer, 72 h treatment
Experimental: as §1, §2, §3, §4

RPMI-8226 = test: Cancer cell growth inhibition, RPMI-8226; format: cell-based, human; details: Homo sapiens; RPMI-8226, Orthotopic Multiple Myeloma, 72 h treatment
Experimental: as §1, §2, §3, §4

HCT-116 = test: Cancer cell growth inhibition, HCT-116; format: cell-based, human; details: Homo sapiens; HCT-116, Colorectal Cancer, 72 h treatment
Experimental: as §1, §2, §3, §4

SK-MES-1 = test: Cancer cell growth inhibition, SK-MES-1; format: cell-based, human; details: Homo sapiens; SK-MES-1, Lung Cancer, 72 h treatment
Experimental: as §1, §2, §3, §4

CNE2 = test: Cancer cell growth inhibition, CNE2; format: cell-based, human; details: Homo sapiens, CNE-2; CNE2, Nasopharyngeal Cancer, 72 h treatment
Experimental: as §1, §2, §3, §4

MCF-7-218 = test: Cancer cell growth inhibition, MCF-7-218; format: cell-based; details: Homo sapiens; MCF-7-218, Breast Cancer, 72 h treatment
Experimental: as §1, §2, §3, §4

A375 = test: Cancer cell growth inhibition, A375; format: cell-based, human; details: Homo sapiens, A-375; A375, Melanoma, 72 h treatment
Experimental: as §1, §2, §3, §4

MIAPACA-2 = test: Cancer cell growth inhibition, MIAPACA-2; format: cell-based, human; details: Homo sapiens, MIA PaCa-2; MIAPACA-2, Pancreatic Cancer, 72 h treatment
Experimental: as §1, §2, §3, §4

SK-BR-3 = test: Cancer cell growth inhibition, SK-BR-3; format: cell-based, human; details: Homo sapiens; SK-BR-3, Breast Cancer, 72 h treatment
Experimental: as §1, §2, §3, §4

Human HDAC3/NcoR2 = Human HDAC3/NcoR2 (Homo sapiens (Human), UniProt O15379); test: HDAC3 fluorogenic peptide deacetylation assay; format: biochemical; details: human HDAC3/NcoR2, 50 μM substrate, 30° C., 2 h; read-out: IC50 (nM) of enzyme activity HDAC3
Chain of Human HDAC3/NcoR2 (O15379 whole entry): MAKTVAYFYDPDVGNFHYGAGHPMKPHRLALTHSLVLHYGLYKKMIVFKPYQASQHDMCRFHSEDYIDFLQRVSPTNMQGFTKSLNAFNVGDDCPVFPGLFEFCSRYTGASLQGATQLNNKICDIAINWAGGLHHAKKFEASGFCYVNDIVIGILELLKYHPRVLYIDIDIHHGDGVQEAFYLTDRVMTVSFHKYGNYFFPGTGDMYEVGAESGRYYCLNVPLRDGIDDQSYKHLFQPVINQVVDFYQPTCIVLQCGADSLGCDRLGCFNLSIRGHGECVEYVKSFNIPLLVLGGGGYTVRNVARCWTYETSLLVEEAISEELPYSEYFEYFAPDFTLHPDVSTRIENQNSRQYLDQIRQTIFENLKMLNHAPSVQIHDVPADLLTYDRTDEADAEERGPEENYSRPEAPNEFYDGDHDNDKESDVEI
Chain of Human HDAC3/NcoR2 (Q9Y618 395-489 partner): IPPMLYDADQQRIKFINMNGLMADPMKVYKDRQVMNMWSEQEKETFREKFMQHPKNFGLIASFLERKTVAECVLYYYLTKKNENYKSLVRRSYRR

K562 = test: Cancer cell growth inhibition, K562; format: cell-based, human; details: Homo sapiens; K562, CML, 72 h treatment
Experimental: as §1
Cells were obtained from the American Type Culture Collection (ATCC). Cells were cultured at 37° C. with 5% CO2 in the appropriate growth medium (see table below), and harvested respectively during the logarithmic growth period and counted with hemocytometer. […] Cell concentrations were adjusted between 5×10^4 and 2×10^5 cells/ml with respective medium.
as §3, §4

U87MG = test: Cancer cell growth inhibition, U87MG; format: cell-based, human; details: Homo sapiens, U-87 MG, Glioblastoma, 72 h treatment
Experimental: as §1, §2, §3, §4

A549 = test: Cancer cell growth inhibition, A549; format: cell-based, human; details: Homo sapiens; A549, Lung Cancer, 72 h treatment
Experimental: as §1, §2, §3, §4

Bx-PC-3 = test: Cancer cell growth inhibition, Bx-PC-3; format: cell-based, human; details: Homo sapiens, BXPC-3; Bx-PC-3, Pancreatic Cancer, 72 h treatment
Experimental: as §1, §2, §3, §4

Human HDAC11 = Human HDAC11 (Homo sapiens (Human), UniProt Q96DB2); test: HDAC11 fluorogenic peptide deacetylation assay; format: biochemical; details: human HDAC11, 50 μM substrate, 30° C., 2 h; read-out: IC50 (nM) of enzyme activity HDAC11
Chain of Human HDAC11 (Q96DB2 whole entry): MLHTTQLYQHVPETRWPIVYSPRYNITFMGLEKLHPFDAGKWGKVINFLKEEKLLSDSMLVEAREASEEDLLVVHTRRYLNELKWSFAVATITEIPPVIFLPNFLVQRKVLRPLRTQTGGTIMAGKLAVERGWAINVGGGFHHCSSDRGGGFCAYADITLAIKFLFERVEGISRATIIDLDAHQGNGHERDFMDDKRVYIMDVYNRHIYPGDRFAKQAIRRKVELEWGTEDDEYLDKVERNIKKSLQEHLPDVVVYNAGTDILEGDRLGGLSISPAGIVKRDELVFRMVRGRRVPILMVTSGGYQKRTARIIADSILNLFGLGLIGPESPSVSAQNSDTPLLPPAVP

MDA-MB-231 = test: Cancer cell growth inhibition, MDA-MB-231; format: cell-based, human; details: Homo sapiens; MDA-MB-231, Breast Cancer, 72 h treatment
Experimental: as §1, §2, §3, §4

NCI-N87 = test: Cancer cell growth inhibition, NCI-N87; format: cell-based, human; details: Homo sapiens; NCI-N87, Gastric Cancer, 72 h treatment
Experimental: as §1, §2, §3, §4

SW480 = test: Cancer cell growth inhibition, SW480; format: cell-based, human; details: Homo sapiens; SW480, Colorectal Cancer, 72 h treatment
Experimental: as §1, §2, §3, §4

Row | Structure (SMILES) | IC50 (MCF-7) | IC50 (HT-29) | IC50 (HT-1080) | IC50 (MCG803) | IC50 (DU145) | IC50 (OVCAR3) | IC50 [1] | IC50 (LoVo) | IC50 (786-O) | IC50 (RPMI-8226) | IC50 (HCT-116) | IC50 (SK-MES-1) | IC50 (CNE2) | IC50 (A375) | IC50 (MIAPACA-2) | IC50 (SK-BR-3) | IC50 (Human HDAC3/NcoR2) | IC50 (U87MG) | IC50 (A549) | IC50 (Bx-PC-3) | further results
1 | O=C(NO)c1ccc(CNC(=O)c2[nH]c(-c3ccc(O)cc3)cc2-c2ccsc2)cc1 [Example 14, N-{4-[(hydroxyamino)carbonyl]benzyl}-5-(4-hydroxyphenyl)-3-(3-thienyl)-1H-pyrrole-2-carboxamide] | 10100 nM | 5780 nM | 1530 nM | 3270 nM | 1520 nM | 25200 nM | 6.7 nM | 498 nM | 8660 nM | 336 nM | 80.4 nM | 18500 nM | 11400 nM | 7700 nM | 428 nM | 334 nM | 124 nM | 9350 nM | 11000 nM | 6830 nM | melting point: 121 to 122 °C; IC50 (MCF-7-218): 37600 nM; IC50 (K562): 1300 nM; IC50 (Human HDAC11): 319 nM; IC50 (MDA-MB-231): 4070 nM
2 | O=C(NO)c1ccc(CNC(=O)c2[nH]c(-c3ccoc3)cc2-c2ccc(O)cc2)cc1 [Example 9, 5-(3-furyl)-N-{4-[(hydroxyamino)carbonyl]benzyl}-3-(4-hydroxyphenyl)-1H-pyrrole-2-carboxamide] | 4490 nM | 10700 nM | 1840 nM | 1100 nM | 4510 nM | 9990 nM | 26 nM | 1910 nM | 13400 nM | 1310 nM | 1990 nM | 7760 nM | 9540 nM | 10200 nM | 2810 nM | 1500 nM | 298 nM | 10800 nM | 11400 nM | 7730 nM | IC50 (MCF-7-218): 12800 nM; IC50 (K562): 1040 nM; IC50 (MDA-MB-231): 4260 nM

More lines, main results first:

Row | IC50 (MCF-7) | IC50 (HT-29) | IC50 (HT-1080) | IC50 (MCG803) | IC50 (DU145) | IC50 (OVCAR3) | IC50 [1] | IC50 (LoVo) | IC50 (786-O) | IC50 (RPMI-8226) | IC50 (HCT-116) | IC50 (SK-MES-1) | IC50 (CNE2) | IC50 (A375) | IC50 (MIAPACA-2) | IC50 (SK-BR-3) | IC50 (Human HDAC3/NcoR2) | IC50 (U87MG) | IC50 (A549) | IC50 (Bx-PC-3) | Structure (SMILES) | further results
3 | 2760 nM | 25900 nM | 1090 nM | 6080 nM | 1860 nM | 4760 nM | 22 nM | 3850 nM | 10000 nM | 462 nM | 1460 nM | 1780 nM | 5010 nM | 4270 nM | 7520 nM | 4080 nM | 273 nM | 8960 nM | 3430 nM | 8280 nM | COc1ccc(-c2cc(-c3ccsc3)c(C(=O)NCc3ccc(C(=O)NO)cc3)[nH]2)cc1 [Example 28, N-{4-[(hydroxyamino)carbonyl]benzyl}-5-(4-methoxyphenyl)-3-(3-thienyl)-1H-pyrrole-2-carboxamide] | IC50 (NCI-N87): 1480 nM; IC50 (K562): 1370 nM; IC50 (SW480): 2380 nM; IC50 (Human HDAC11): 718 nM; IC50 (MDA-MB-231): 73800 nM
4 | 376 nM | 1010 nM | 160 nM | 738 nM | 338 nM | 904 nM | 3.9 nM | 430 nM | 1910 nM | 58.6 nM | 416 nM | 588 nM | 590 nM | 1040 nM | 881 nM | 771 nM | 75 nM | 1390 nM | 1020 nM | 775 nM | COc1ccc(-c2cc(-c3ccoc3)c(C(=O)NCc3ccc(C(=O)NO)cc3)[nH]2)cc1 [Example 27, 3-(3-furyl)-N-{4-[(hydroxyamino)carbonyl]benzyl}-5-(4-methoxyphenyl)-1H-pyrrole-2-carboxamide] | IC50 (NCI-N87): 153 nM; IC50 (SW480): 574 nM; IC50 (Human HDAC11): 341 nM; IC50 (MDA-MB-231): 1490 nM
5 | 2090 nM | 2290 nM | 594 nM | 2010 nM | 460 nM | 8050 nM | 3.4 nM | 150 nM | 2290 nM | 426 nM | 82 nM | 3510 nM | 16100 nM | 3680 nM | 270 nM | 453 nM | 46.1 nM | 6560 nM | 2460 nM | 2250 nM | O=C(NO)c1ccc(CNC(=O)c2[nH]c(-c3ccc(O)cc3)cc2-c2ccoc2)cc1 [Example 15, 3-(3-furyl)-N-{4-[(hydroxyamino)carbonyl]benzyl}-5-(4-hydroxyphenyl)-1H-pyrrole-2-carboxamide] | IC50 (MCF-7-218): 26500 nM; IC50 (K562): 739 nM; IC50 (Human HDAC11): 72 nM; IC50 (MDA-MB-231): 1830 nM
